Laboratory results taken from ChEMBL document CHEMBL1909550, “Designing 2-aminoimidazole alkaloids analogs with anti-biofilm activities: structure-activities relationships of polysubstituted triazoles” (Bioorg Med Chem Lett, 2011).

Columns and labels:
[1] = system: Paracoccus sp.; test: Antibiofilm activity against Paracoccus sp. 4M6 assessed as inhibition of bacterial adhesion after 15 hrs by fluorescence assay; assay type: functional; settings: Paracoccus sp. (in: a-proteobacteria), 4M6, 15 h
[2] = system: Pseudoalteromonas sp. D41; test: Antibiofilm activity against Pseudoalteromonas sp. D41 assessed as inhibition of bacterial adhesion after 15 hrs by fluorescence assay; assay type: functional; settings: Pseudoalteromonas sp. D41, 15 h
[3] = system: Paracoccus sp.; test: Antibiofilm activity against Paracoccus sp. 4M6 assessed as inhibition of bacterial adhesion at 200 uM after 15 hrs by fluorescence assay; assay type: functional; settings: Paracoccus sp. (in: a-proteobacteria), 4M6, 15 h; values are per cent of control
[4] = system: Pseudoalteromonas sp. D41; test: Antibiofilm activity against Pseudoalteromonas sp. D41 assessed as inhibition of bacterial adhesion at 200 uM after 15 hrs by fluorescence assay relative to control; assay type: functional; settings: Pseudoalteromonas sp. D41, 15 h
[5] = Antibacterial activity against Pseudoalteromonas sp. D41 assessed as growth inhibition at 100 uM up to 6 hrs by viability assay; settings: pseudoalteromonas sp. d41, 6 h
[6] = Antibacterial activity against Paracoccus sp. 4M6 assessed as growth inhibition at 100 uM up to 6 hrs by viability assay
[7] = system: Pseudomonas aeruginosa; test: Antibiofilm activity against Pseudomonas aeruginosa assessed as dispersion of bacterial biofilm; assay type: functional, organism-based
[8] = system: Pseudomonas aeruginosa; test: Antibiofilm activity against Pseudomonas aeruginosa assessed as modulation of biofilm formation; assay type: functional, organism-based
[9] = Antibacterial activity against Paracoccus sp. 4M6 assessed as growth inhibition at 10 uM up to 6 hrs by viability assay
[10] = Antibacterial activity against Pseudoalteromonas sp. D41 assessed as growth inhibition at 10 uM up to 6 hrs by viability assay; settings: pseudoalteromonas sp. d41, 6 h

Compound	EC50 [1]	EC50 [2]	also measured
COc1ccc(Cn2nncc2-c2ccccc2)cc1	> 200 µM	> 200 µM	response, % of control at 200 µM [3]: 127%; inhibition at 200 µM [4]: 70.9%
COc1ccc(Cn2nncc2Cc2ccccc2)cc1	199 µM	> 200 µM	inhibition at 200 µM [4]: 55.5%
COc1ccc(Cn2nncc2CCc2ccccc2)cc1	> 200 µM	> 200 µM	response, % of control at 200 µM [3]: 97.8%; inhibition at 200 µM [4]: 78.5%
COc1ccc(Cn2cc(-c3cc(OC)cc(OC)c3)nn2)cc1	199 µM	62 µM	growth inhibition (GI) [5]: Non-toxic
Oc1ccc(-c2cnnn2Cc2cccc(O)c2)cc1	> 200 µM	> 200 µM	–
COc1cccc(Cn2nncc2-c2cc(OC)cc(OC)c2)c1	> 200 µM	48.6 µM	growth inhibition (GI) [5]: Non-toxic
COc1ccc(Cn2nncc2-c2ccc(OC)cc2)cc1	> 200 µM	> 200 µM	–
COc1cccc(Cn2cc(-c3cc(OC)cc(OC)c3)nn2)c1	> 200 µM	34.8 µM	growth inhibition (GI) [5]: Non-toxic
Oc1cccc(Cn2nncc2-c2cc(O)cc(O)c2)c1	> 200 µM	> 200 µM	–
Oc1ccc(-c2cn(Cc3cccc(O)c3)nn2)cc1	41.2 µM	129 µM	growth inhibition (GI) [6]: Non-toxic
Oc1cccc(Cn2cc(-c3cc(O)cc(O)c3)nn2)c1	> 200 µM	> 200 µM	–
Oc1ccc(Cn2cc(-c3ccc(O)cc3)nn2)cc1	131 µM	> 200 µM	–
COc1ccc(Cc2[nH]c(=N)n(C)c2Cc2ccc(O)cc2)cc1 [NAAMINE A]	–	–	EC50 [7]: 436 µM; EC50 [8]: 436 µM
CCn1cc(C(=O)O)c(=O)c2cc(F)c(N3CCNCC3)cc21 [NORFLOXACIN]	–	–	growth inhibition (GI) [9]: Toxic; growth inhibition (GI) [10]: Toxic

Further lines, with some results ahead:

EC50 [1]	EC50 [2]	Compound	also measured
> 200 µM	> 200 µM	COc1ccc(-c2cn(Cc3cccc(OC)c3)nn2)cc1	–
> 200 µM	> 200 µM	COc1cccc(Cn2nncc2-c2ccccc2)c1	response, % of control at 200 µM [3]: 142%; inhibition at 200 µM [4]: 50.5%
> 200 µM	> 200 µM	COc1cccc(Cn2nncc2Cc2ccccc2)c1	response, % of control at 200 µM [3]: 149%; inhibition at 200 µM [4]: 58.5%
> 200 µM	> 200 µM	COc1cccc(Cn2nncc2CCc2ccccc2)c1	response, % of control at 200 µM [3]: 65.5%; inhibition at 200 µM [4]: 86.4%
> 200 µM	172 µM	COc1ccc(-c2cnnn2Cc2cccc(OC)c2)cc1	–
90.3 µM	37.2 µM	COc1ccc(Cn2nncc2-c2cc(OC)cc(OC)c2)cc1	growth inhibition (GI) [6]: Non-toxic; growth inhibition (GI) [5]: Non-toxic
> 200 µM	> 200 µM	COc1ccc(Cn2cc(-c3ccc(OC)cc3)nn2)cc1	–
> 200 µM	> 200 µM	Oc1ccc(Cn2nncc2-c2ccc(O)cc2)cc1	–
> 200 µM	> 200 µM	Oc1ccc(Cn2nncc2-c2cc(O)cc(O)c2)cc1	–
181 µM	> 200 µM	Oc1ccc(Cn2cc(-c3cc(O)cc(O)c3)nn2)cc1	–
